{"source": "paper PMC5318888", "about": "“SAMHD1 enhances nucleoside-analogue efficacy against HIV-1 in myeloid cells” (Scientific Reports, 2017)", "key": {"HIV-1-GFP [1]": {"system": "HIV-1-GFP", "assay": "microbe, parasite or virus in culture", "assay_type": "cell-based", "experimental": "Cells were then infected with HIV-1-GFP by spinoculation at 800 × g for 90 min in the presence of 1 μg/mL polybrene, and further incubated at 37 °C in 5% CO2 for 72 h. […] Cells were then infected with HIV-1-GFP by spinoculation at 800 × g for 90 min in the presence of 1 μg/mL polybrene, and further incubated at 37 °C in 5% CO2 for 72 h. Non-dividing U937 and THP-1 (PMA^+) cells (6 × 10^5 cells/mL) were differentiated by addition of 100 nM PMA (PMA^+) for 48 h and treated with increasing concentrations of nucleoside analogues as described above. Cells were then infected with HIV-1-GFP in the presence of 1 μg/mL polybrene and further incubated at 37 °C in 5% CO2 for 72 h. The percentage of GFP^+cells was determined by one-colour flow cytometry using a Fortessa X20 analyser (BD Biosciences) and the data analysed using the FlowJo software suite.\n(§1) Non-ambiguous values were subjected to a replicate test to calculate confidence intervals of 95% (95% CI). CC50 and EC50 values were determined for at least two independent experiments for each nucleoside analogue and a selectivity index (SI) also calculated, (SI = CC50/EC50). EC50 values for each replicate were used to perform an unpaired two-tailed t-test to determine significant differences between U937 cells expressing SAMHD1 wt or HD206-7AA mutant and THP-1 cells expressing Vpx or untransduced cells. P values of <0.005 were considered statistically significant."}, "HIV-1-GFP [2]": {"system": "HIV-1-GFP", "assay": "microbe, parasite or virus in culture", "assay_type": "cell-based", "experimental": "H9 and Jurkat cells (6 × 10^5 cells/mL) were treated with increasing concentrations of nucleoside analogues (0–200 μM; except CFB, 0–1.6 μM) and incubated for 4 h at 37 °C in 5% CO2. Cells were then infected with HIV-1-GFP by spinoculation at 800 × g for 90 min in the presence of 1 μg/mL polybrene, and further incubated at 37 °C in 5% CO2 for 72 h. Undifferentiated U937 and THP-1 (PMA^−) cells (6 × 10^5 cells/mL) were treated with increasing concentrations of nucleoside analogues (0–200 μM; except CFB, 0–1.6 μM) and incubated at 37 °C in 5% CO2 for 48 h. Cells were then infected with HIV-1-GFP by spinoculation at 800 × g for 90 min in the presence of 1 μg/mL polybrene, and further incubated at 37 °C in 5% CO2 for 72 h. Non-dividing U937 and THP-1 (PMA^+) cells (6 × 10^5 cells/mL) were differentiated by addition of 100 nM PMA (PMA^+) for 48 h and treated with increasing concentrations of nucleoside analogues as described above. Cells were then infected with HIV-1-GFP in the presence of 1 μg/mL polybrene and further incubated at 37 °C in 5% CO2 for 72 h. The percentage of GFP^+cells was determined by one-colour flow cytometry using a Fortessa X20 analyser (BD Biosciences) and the data analysed using the FlowJo software suite.\nas §1", "remark": "listed apart in the source"}, "HIV-1-GFP [3]": {"system": "HIV-1-GFP", "assay": "Anti-HIV-1 activity in U937 cells transduced with wt SAMHD1 or HD206-7AA mutant", "assay_type": "cell-based", "experimental": "(§2) Antiviral assays were further performed in monocytoid cells transduced with YFP-expressing VLPs containing WT SAMHD1, HD206-7AA or Vpx. Briefly, U937 cells (6 × 10^5 cells/mL) were transduced with WT SAMHD1-YFP or HD206-7AA-YFP VLPs by spinoculation at 800 × g for 90 min in the presence of 1 μg/mL polybrene. Similarly, THP-1 cells (6 × 10^5 cells/mL) were transduced with Vpx-YFP VLPs by spinoculation at 800 × g for 90 min in the presence of 1 μg/mL polybrene. Cells were incubated at 37 °C in 5% CO2 and after 72 h, PMA^+ cells (6 × 10^5 cells/mL) were treated with 100 nM PMA and PMA^− cells (7.5 × 10^4 cells/mL) were left untreated. Cells were then incubated at 37 °C in 5% CO2 for 48 h. Nucleoside analogues were added at increasing concentrations (0–200 μM; except CFB, 0–1.6 μM) and cells were further incubated for 48 h. PMA^− cells were then infected with HIV-1-GFP by spinoculation at 800 × g for 90 min in the presence of 1 μg/mL polybrene, PMA^+ cells were infected with HIV-1-GFP in the presence of 1 μg/mL polybrene only. Cells were incubated for 72 h at 37 °C in 5% CO2 and then analysed by two-colour flow cytometry using a Fortessa X20 analyser (BD Biosciences). Data were analysed using the FlowJo software suite.\nas §1, with “The cytotoxic concentration of nucleoside analogue that inhibits cell viability by 50% (CC50) and the effective concentration of nucleoside analogue that inhibits infection of cells by 50% (EC50) were calculated for each independent experiment by non-linear regression using GraphPad Prism v6.00 for Windows (GraphPad Software, San Diego, CA). Non-ambiguous” for “Non-ambiguous”"}, "HIV-1-GFP [4]": {"system": "HIV-1-GFP", "assay": "Anti-HIV-1 activity in THP-1 cells with or without Vpx transduction", "assay_type": "cell-based", "experimental": "as §2\nas §1, with “The cytotoxic concentration of nucleoside analogue that inhibits cell viability by 50% (CC50) and the effective concentration of nucleoside analogue that inhibits infection of cells by 50% (EC50) were calculated for each independent experiment by non-linear regression using GraphPad Prism v6.00 for Windows (GraphPad Software, San Diego, CA). Non-ambiguous” for “Non-ambiguous”"}, "[5]": {"assay": "Cytotoxicity, live cells by flow cytometry, H9 cells", "assay_type": "cell-based", "conditions": "human", "experimental": "(§3) H9, Jurkat and undifferentiated U937 and THP-1 (PMA^−) cells (6 × 10^5 cells/mL) were treated with increasing concentrations of nucleoside analogues (0–200 μM; except CFB, 0–1.6 μM) and incubated at 37 °C in 5% CO2 for 48 h. Medium was then replaced and cells were further incubated for 72 h. Non-dividing U937 and THP-1 (PMA^+) cells (6 × 10^5 cells/mL) were differentiated by addition of 100 nM phorbol-12-myristate-13-acetate (PMA^+) for 48 h and then treated with increasing concentrations of nucleoside analogues as described above. The percentage of live cells was determined by flow cytometry using Live/Dead fixable blue-fluorescent dyes (Invitrogen) and a Fortessa X20 analyser (BD Biosciences). Data were analysed using the FlowJo software suite.\nas §1, with “The cytotoxic concentration of nucleoside analogue that inhibits cell viability by 50% (CC50) and the effective concentration of nucleoside analogue that inhibits infection of cells by 50% (EC50) were calculated for each independent experiment by non-linear regression using GraphPad Prism v6.00 for Windows (GraphPad Software, San Diego, CA). Non-ambiguous” for “Non-ambiguous”"}, "[6]": {"assay": "Cytotoxicity, live cells by flow cytometry, Jurkat cells", "assay_type": "cell-based", "conditions": "human", "experimental": "as §3\nas §1, with “The cytotoxic concentration of nucleoside analogue that inhibits cell viability by 50% (CC50) and the effective concentration of nucleoside analogue that inhibits infection of cells by 50% (EC50) were calculated for each independent experiment by non-linear regression using GraphPad Prism v6.00 for Windows (GraphPad Software, San Diego, CA). Non-ambiguous” for “Non-ambiguous”"}, "SAMHD1": {"molecular_target": "T1, SAMHD1 (Homo sapiens, UniProt Q9Y3Z3)", "T1 construct": "The final concentrations were 100 nM SAMHD1(115–626), 10 nM Ppx1; strep-tag; made in house", "T1 sequence (Q9Y3Z3 115-626)": "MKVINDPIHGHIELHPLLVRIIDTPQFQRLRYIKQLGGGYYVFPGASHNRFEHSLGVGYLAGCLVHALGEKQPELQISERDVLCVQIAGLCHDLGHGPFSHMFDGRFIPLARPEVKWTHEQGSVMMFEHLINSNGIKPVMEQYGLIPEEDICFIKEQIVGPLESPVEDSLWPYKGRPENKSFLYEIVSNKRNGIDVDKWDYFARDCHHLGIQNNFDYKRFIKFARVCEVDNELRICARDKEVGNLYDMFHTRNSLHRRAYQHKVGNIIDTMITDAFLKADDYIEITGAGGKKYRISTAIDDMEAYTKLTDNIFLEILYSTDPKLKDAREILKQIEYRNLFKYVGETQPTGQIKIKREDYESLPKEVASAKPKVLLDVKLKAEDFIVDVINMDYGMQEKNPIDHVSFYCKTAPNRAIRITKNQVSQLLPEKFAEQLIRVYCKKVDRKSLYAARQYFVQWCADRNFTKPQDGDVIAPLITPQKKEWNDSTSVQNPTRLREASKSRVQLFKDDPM", "parameters": "method as in PMID 25331707", "conditions": "previous in vitro assays; cited from earlier work"}}, "note": "pEC50: −log10 of the molar value."}
{"compound": "Nc1nc(Cl)nc2c1ncn2[C@@H]1O[C@H](CO)[C@@H](O)[C@@H]1F", "note": "[CFB, 2-chloro-9-(2′-Deoxy-2′-fluoro-beta-D-arabinofuranosyl)adenine]", "values": [{"measurement": "SI, selectivity index CC50/EC50", "setting": "HIV-1-GFP [1]; H9 cells", "result": "< 1"}, {"measurement": "pEC50", "setting": "HIV-1-GFP [1]; Human immunodeficiency virus 1, H9, read-out: EC50 anti-HIV-1, H9 cells", "result": 7.03}, {"measurement": "pEC50", "setting": "HIV-1-GFP [1]; Human immunodeficiency virus 1, Jurkat, read-out: EC50 anti-HIV-1, Jurkat cells", "result": 6.18}, {"measurement": "SI, selectivity index CC50/EC50", "setting": "HIV-1-GFP [1]; Jurkat cells", "result": "< 1"}, {"measurement": "pEC50", "setting": "HIV-1-GFP [2]; Human immunodeficiency virus 1, THP-1, read-out: EC50 [95% CI], THP1 PMA+", "result": 8.52}, {"measurement": "pEC50", "setting": "HIV-1-GFP [2]; Human immunodeficiency virus 1, THP-1, read-out: EC50 [95% CI], THP1 PMA−", "result": 6.88}, {"measurement": "pEC50", "setting": "HIV-1-GFP [2]; Human immunodeficiency virus 1, U-937, read-out: EC50 [95% CI], U937 PMA+", "result": 7.43}, {"measurement": "pEC50", "setting": "HIV-1-GFP [2]; Human immunodeficiency virus 1, U-937, read-out: EC50 [95% CI], U937 PMA−", "result": 6.92}, {"measurement": "fold increase of anti-HIV-1 activity in PMA+ over PMA− cells", "setting": "HIV-1-GFP [2]; THP-1", "result": 44, "unit": "fold"}, {"measurement": "SI, selectivity index CC50/EC50", "setting": "HIV-1-GFP [2]; THP-1 PMA+", "result": "> 533"}, {"measurement": "SI, selectivity index CC50/EC50", "setting": "HIV-1-GFP [2]; THP-1 PMA−", "result": "< 1"}, {"measurement": "fold increase of anti-HIV-1 activity in PMA+ over PMA− cells", "setting": "HIV-1-GFP [2]; U937", "result": 3, "unit": "fold"}, {"measurement": "SI, selectivity index CC50/EC50", "setting": "HIV-1-GFP [2]; U937 PMA+", "result": "> 43"}, {"measurement": "SI, selectivity index CC50/EC50", "setting": "HIV-1-GFP [2]; U937 PMA−", "result": "< 1"}, {"measurement": "pEC50", "setting": "HIV-1-GFP [3]; Human immunodeficiency virus 1, U-937, read-out: EC50 [95% CI], U937 PMA+, HD206/7AA+ population", "result": 7.54}, {"measurement": "pEC50", "setting": "HIV-1-GFP [3]; Human immunodeficiency virus 1, U-937, read-out: EC50 [95% CI], U937 PMA+, SAMHD1+ population", "result": 8.89}, {"measurement": "pEC50", "setting": "HIV-1-GFP [3]; Human immunodeficiency virus 1, U-937, read-out: EC50 [95% CI], U937 PMA−, HD206/7AA+ population", "result": 6.97}, {"measurement": "pEC50", "setting": "HIV-1-GFP [3]; Human immunodeficiency virus 1, U-937, read-out: EC50 [95% CI], U937 PMA−, SAMHD1+ population", "result": 6.86}, {"measurement": "Fold (EC50 HD206/7AA vs SAMHD1)", "setting": "HIV-1-GFP [3]; U937 PMA+", "result": 22, "unit": "fold"}, {"measurement": "Fold (EC50 HD206/7AA vs SAMHD1)", "setting": "HIV-1-GFP [3]; U937 PMA−", "result": 1, "unit": "fold"}, {"measurement": "pEC50", "setting": "HIV-1-GFP [4]; Human immunodeficiency virus 1, THP-1, read-out: EC50 [95% CI], THP1 PMA+, Vpx+", "result": 7.92}, {"measurement": "pEC50", "setting": "HIV-1-GFP [4]; Human immunodeficiency virus 1, THP-1, read-out: EC50 [95% CI], THP1 PMA+, Vpx−", "result": 8.52}, {"measurement": "pEC50", "setting": "HIV-1-GFP [4]; Human immunodeficiency virus 1, THP-1, read-out: EC50 [95% CI], THP1 PMA−, Vpx+", "result": "< 5.80"}, {"measurement": "pEC50", "setting": "HIV-1-GFP [4]; Human immunodeficiency virus 1, THP-1, read-out: EC50 [95% CI], THP1 PMA−, Vpx−", "result": 6.47}, {"measurement": "Fold (EC50 Vpx+ vs Vpx−)", "setting": "HIV-1-GFP [4]; THP1 PMA+", "result": 4, "unit": "fold"}, {"measurement": "Fold (EC50 Vpx+ vs Vpx−)", "setting": "HIV-1-GFP [4]; THP1 PMA−", "result": ">5", "unit": "fold"}, {"measurement": "CC50 at 48 h", "setting": "[5]", "result": 31, "unit": "nM"}, {"measurement": "CC50 at 48 h", "setting": "[6]", "result": 49, "unit": "nM"}]}
{"compound": "Nc1nc(Cl)nc2c1ncn2[C@@H]1O[C@H](COP(=O)(O)OP(=O)(O)OP(=O)(O)O)[C@@H](O)[C@@H]1F", "note": "[CFB-TP, Clofarabine triphosphate]", "values": [{"measurement": "hydrolysis by SAMHD1 (substrate)", "setting": "SAMHD1", "result": "substrate hydrolysed by SAMHD1 at a rate comparable to natural dNTP substrates"}]}
{"compound": "Nc1nc(O)c2ncn(COC(CO)COP(=O)(O)OP(=O)(O)OP(=O)(O)O)c2n1", "note": "(stereo not shown) [GCV-TP, Ganciclovir triphosphate]", "values": [{"measurement": "allosteric activation of SAMHD1", "setting": "SAMHD1", "result": "displayed no activation of SAMHD1"}, {"measurement": "hydrolysis by SAMHD1 (substrate)", "setting": "SAMHD1", "result": "non-hydrolysable"}]}
